Data published in article PMC7400437, “Synthesis and Evaluation of the Antibacterial Activities of 13-Substituted Berberine Derivatives” (Antibiotics, 2020).

Assays:
Test in all cases: MIC, antimicrobial activity assay
[1] = test system: A. gandavensis; type: cell-based, Arthrobacter gandavensis (DSM 2447); conditions: Arthrobacter gandavensis; Table 4, Gram-positive
[2] = test system: S.aureus (Methicillin-resistant); type: cell-based; conditions: Staphylococcus aureus, read-out: MIC S.aureus (Methicillin-resistant)
[3] = test system: S. enterica; type: cell-based, Salmonella enterica (CIP 80.39); conditions: Salmonella enterica; Table 4, Gram-negative

SMILES	MIC [1] [µM]	MIC [2] [µM]	MIC [3] [µM]
COc1cc(C(=O)Cc2c3[n+](cc4c(OC)c(OC)ccc24)CCc2cc4c(cc2-3)OCO4)cc(OC)c1OC(=O)c1ccccc1 [Compound 16, 4-[2-(Berberin-13-yl)acetyl]-2,6-dimethoxyphenyl Benzoate]	100	12.5	> 100
COc1ccc(C(=O)/C=C/c2ccc(Cc3c4[n+](cc5c(OC)c(OC)ccc35)CCc3cc5c(cc3-4)OCO5)cc2)c(O)c1 [Compound 25, (2E)-3-{4-[(Berberin-13-yl)methyl]phenyl}-1-(2-hydroxy-4-methoxyphenyl)prop-2-en-1-one]	1.5	6.25	> 100
